From the kinase profiling compilation of Christmann-Franck et al. (2016)

How the values were obtained:
Experiment in all cases: radiometric filter-binding kinase assay
TESK1 (human) = TESK1 (human) (UniProt Q15569)
STK33 (human) = STK33 (human) (UniProt Q9BYT3)
TLK1 (human) = TLK1 (human) (UniProt Q9UKI8)
TTBK2 (human) = TTBK2 (human) (UniProt Q6IQ55)
CDK9 CCNT1 (human) = CDK9 CCNT1 (human) (UniProt P50750+O60563)
[1] = test system: OXSR1 (human), O95747 [T185E]
ZAP70 (human) = ZAP70 (human) (UniProt P43403)
EIF2AK3 (human) = EIF2AK3 (human) (UniProt Q9NZJ5)
[2] = target: PRKAA1 PRKAB2 PRKAG1 (human) (UniProt O43741+Q13131+P54619)
SIK2 (human) = SIK2 (human) (UniProt Q9H0K1)
MAPK7 (human) = MAPK7 (human) (UniProt Q13164)
WNK1 (human) = WNK1 (human) (UniProt Q9H4A3)
TEK (human) = TEK (human) (UniProt Q02763)
DDR2 (human) = DDR2 (human) (UniProt Q16832)
CSNK1G2 (human) = CSNK1G2 (human) (UniProt P78368)
MAP2K6 (human) = MAP2K6 (human) (UniProt P52564)
MAP4K3 (human) = MAP4K3 (human) (UniProt Q8IVH8)
STK24 (human) = STK24 (human) (UniProt Q9Y6E0)
[3] = test system: TGFBR1 (human), P36897 [T204D]
ABL1 (human) = ABL1 (human) (UniProt P00519)
PDGFRA (human) = PDGFRA (human) (UniProt P16234)
SIK3 (human) = SIK3 (human) (UniProt Q9Y2K2)
TTBK1 (human) = TTBK1 (human) (UniProt Q5TCY1)
PTK6 (human) = PTK6 (human) (UniProt Q13882)
IRAK1 (human) = IRAK1 (human) (UniProt P51617)
ULK2 (human) = ULK2 (human) (UniProt Q8IYT8)
NUAK1 (human) = NUAK1 (human) (UniProt O60285)
MAP4K5 (human) = MAP4K5 (human) (UniProt Q9Y4K4)
TSSK1B (human) = TSSK1B (human) (UniProt Q9BXA7)
STK16 (human) = STK16 (human) (UniProt O75716)
PRKCG (human) = PRKCG (human) (UniProt P05129)
ULK1 (human) = ULK1 (human) (UniProt O75385)
NEK7 (human) = NEK7 (human) (UniProt Q8TDX7); details: compound 1.0 µM

NUAK1 (human), sequence (O60285 whole entry, looked up): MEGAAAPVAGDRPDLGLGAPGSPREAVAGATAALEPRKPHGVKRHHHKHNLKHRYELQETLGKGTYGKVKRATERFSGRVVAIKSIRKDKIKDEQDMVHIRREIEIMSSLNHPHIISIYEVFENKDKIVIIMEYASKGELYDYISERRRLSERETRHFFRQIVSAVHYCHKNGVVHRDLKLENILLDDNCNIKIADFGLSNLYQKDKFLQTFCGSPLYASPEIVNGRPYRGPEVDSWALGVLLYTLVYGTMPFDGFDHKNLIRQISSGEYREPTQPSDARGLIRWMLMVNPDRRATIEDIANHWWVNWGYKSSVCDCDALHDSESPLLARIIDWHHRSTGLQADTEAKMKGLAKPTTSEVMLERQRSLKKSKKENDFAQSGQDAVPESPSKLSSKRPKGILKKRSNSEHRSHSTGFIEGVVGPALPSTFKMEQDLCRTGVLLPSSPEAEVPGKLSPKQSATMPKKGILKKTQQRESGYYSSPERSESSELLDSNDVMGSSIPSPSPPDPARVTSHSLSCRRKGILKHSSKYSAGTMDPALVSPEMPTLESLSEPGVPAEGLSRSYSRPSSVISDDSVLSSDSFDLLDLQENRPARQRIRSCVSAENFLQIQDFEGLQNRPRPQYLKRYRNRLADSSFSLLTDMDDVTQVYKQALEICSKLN
MAP2K6 (human), sequence (P52564 whole entry, looked up): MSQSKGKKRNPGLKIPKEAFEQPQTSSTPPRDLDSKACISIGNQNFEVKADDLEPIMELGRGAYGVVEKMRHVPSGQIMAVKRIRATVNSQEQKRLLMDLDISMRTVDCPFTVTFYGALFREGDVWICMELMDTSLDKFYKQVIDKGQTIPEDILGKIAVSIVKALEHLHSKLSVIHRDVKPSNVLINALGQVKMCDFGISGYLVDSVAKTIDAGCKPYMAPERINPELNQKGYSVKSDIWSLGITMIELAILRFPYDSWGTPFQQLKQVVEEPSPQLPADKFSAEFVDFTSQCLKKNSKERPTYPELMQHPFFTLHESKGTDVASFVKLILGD
OXSR1 (human), O95747 [T185E], sequence (O95747 whole entry T185E, looked up): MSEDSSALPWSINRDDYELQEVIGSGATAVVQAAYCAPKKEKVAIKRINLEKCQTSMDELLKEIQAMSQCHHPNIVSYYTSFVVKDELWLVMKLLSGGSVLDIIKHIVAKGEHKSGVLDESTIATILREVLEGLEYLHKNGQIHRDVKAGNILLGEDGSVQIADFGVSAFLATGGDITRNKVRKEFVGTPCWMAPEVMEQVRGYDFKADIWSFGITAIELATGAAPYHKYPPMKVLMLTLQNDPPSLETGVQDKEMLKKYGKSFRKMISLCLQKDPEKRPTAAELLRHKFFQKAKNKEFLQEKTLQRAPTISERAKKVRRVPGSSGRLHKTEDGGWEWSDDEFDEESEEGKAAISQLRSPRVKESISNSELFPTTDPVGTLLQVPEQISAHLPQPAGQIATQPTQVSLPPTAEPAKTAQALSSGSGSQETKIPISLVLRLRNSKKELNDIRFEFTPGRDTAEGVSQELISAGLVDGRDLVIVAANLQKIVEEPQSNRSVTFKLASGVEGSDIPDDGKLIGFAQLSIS
MAP4K3 (human), sequence (Q8IVH8 whole entry, looked up): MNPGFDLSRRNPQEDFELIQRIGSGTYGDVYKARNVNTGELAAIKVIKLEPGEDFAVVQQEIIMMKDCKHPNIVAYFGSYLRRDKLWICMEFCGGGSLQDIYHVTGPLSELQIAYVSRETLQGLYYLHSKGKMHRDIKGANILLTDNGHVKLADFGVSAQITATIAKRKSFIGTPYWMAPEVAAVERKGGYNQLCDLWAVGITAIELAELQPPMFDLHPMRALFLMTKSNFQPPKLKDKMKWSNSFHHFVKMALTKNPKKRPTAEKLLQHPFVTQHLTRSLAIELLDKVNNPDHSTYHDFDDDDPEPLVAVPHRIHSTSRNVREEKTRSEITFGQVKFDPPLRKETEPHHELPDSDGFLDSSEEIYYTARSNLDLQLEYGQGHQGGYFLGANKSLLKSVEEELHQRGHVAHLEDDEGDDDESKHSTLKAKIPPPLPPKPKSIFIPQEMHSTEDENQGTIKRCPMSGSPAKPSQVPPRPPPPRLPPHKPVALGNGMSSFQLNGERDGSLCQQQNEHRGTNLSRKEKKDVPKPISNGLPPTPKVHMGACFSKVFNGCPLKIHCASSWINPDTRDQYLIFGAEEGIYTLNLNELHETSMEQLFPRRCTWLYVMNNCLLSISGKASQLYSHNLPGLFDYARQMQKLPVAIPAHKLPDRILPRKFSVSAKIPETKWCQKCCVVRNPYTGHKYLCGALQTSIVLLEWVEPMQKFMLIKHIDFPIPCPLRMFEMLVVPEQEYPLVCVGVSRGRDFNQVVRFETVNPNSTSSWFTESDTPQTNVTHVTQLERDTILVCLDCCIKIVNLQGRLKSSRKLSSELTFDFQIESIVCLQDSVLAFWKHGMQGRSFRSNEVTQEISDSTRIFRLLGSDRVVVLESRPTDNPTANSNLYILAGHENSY
SIK3 (human), sequence (Q9Y2K2 whole entry, looked up): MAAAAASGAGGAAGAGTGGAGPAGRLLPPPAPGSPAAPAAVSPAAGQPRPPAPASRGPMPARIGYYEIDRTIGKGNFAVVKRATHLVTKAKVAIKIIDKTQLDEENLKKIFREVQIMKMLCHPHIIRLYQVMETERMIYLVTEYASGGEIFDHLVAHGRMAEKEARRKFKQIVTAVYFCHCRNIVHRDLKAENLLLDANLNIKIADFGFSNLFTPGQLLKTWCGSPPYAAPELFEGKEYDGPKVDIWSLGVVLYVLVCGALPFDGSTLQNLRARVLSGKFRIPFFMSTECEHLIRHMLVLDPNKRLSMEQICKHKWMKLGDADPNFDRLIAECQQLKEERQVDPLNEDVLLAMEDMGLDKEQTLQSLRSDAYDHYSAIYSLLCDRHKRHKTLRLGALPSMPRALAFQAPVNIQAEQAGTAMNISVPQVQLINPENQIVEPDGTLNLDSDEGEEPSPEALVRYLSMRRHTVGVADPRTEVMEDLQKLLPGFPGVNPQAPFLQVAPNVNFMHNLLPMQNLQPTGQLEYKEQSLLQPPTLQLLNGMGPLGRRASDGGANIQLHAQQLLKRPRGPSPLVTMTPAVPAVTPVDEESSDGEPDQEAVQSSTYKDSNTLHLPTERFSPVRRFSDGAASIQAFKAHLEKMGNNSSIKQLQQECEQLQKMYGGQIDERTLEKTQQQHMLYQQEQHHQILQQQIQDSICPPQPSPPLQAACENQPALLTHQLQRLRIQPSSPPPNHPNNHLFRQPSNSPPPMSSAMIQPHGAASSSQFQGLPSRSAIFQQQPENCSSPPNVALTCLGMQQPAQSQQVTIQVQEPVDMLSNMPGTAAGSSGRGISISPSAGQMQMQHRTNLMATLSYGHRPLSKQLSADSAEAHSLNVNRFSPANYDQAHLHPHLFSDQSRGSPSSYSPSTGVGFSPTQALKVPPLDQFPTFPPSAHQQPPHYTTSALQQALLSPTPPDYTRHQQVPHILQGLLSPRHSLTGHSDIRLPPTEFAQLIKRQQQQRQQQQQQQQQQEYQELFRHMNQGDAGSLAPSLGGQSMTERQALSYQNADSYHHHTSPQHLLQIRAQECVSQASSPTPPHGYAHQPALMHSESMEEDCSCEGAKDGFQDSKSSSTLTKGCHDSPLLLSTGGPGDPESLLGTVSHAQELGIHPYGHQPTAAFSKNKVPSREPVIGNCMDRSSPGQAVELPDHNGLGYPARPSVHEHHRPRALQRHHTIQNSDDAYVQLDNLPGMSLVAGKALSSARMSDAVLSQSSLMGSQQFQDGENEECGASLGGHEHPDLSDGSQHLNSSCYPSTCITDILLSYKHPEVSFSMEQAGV
MAP4K5 (human), sequence (Q9Y4K4 whole entry, looked up): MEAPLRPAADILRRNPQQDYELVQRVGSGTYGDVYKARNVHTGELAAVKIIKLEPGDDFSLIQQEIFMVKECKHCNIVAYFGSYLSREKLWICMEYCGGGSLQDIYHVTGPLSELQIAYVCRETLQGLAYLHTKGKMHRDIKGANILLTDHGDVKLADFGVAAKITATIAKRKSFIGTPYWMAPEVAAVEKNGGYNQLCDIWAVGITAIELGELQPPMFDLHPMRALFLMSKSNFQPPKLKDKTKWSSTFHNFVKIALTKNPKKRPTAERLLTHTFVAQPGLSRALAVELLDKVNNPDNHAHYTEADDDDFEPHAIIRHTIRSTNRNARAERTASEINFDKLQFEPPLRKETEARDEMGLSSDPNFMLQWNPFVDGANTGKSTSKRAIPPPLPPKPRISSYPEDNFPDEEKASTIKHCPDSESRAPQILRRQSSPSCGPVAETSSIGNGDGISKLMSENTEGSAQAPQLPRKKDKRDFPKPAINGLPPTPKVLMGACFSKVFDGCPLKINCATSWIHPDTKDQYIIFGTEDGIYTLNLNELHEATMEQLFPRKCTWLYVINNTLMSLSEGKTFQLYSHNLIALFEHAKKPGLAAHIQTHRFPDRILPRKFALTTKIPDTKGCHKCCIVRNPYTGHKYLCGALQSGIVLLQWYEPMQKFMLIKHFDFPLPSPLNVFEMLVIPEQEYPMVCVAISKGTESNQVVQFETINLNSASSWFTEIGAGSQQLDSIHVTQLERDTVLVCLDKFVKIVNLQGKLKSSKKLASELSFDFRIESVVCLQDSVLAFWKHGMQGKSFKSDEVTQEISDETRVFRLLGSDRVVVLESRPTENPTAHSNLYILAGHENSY
STK16 (human), sequence (O75716 whole entry, looked up): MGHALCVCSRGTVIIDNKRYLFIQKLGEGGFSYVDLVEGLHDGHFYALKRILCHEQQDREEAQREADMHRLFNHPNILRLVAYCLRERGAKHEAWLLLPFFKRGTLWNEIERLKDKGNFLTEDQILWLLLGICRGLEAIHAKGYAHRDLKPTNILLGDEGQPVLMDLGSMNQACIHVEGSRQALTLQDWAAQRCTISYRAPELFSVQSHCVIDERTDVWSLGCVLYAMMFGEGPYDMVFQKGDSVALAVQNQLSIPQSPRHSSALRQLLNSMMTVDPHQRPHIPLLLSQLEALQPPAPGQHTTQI

CCNc1nc(Nc2cc(F)c(C(=O)N3CCOCC3)cc2OC)ncc1C(F)(F)F
residual activity (TESK1 (human); compound 1.0 µM): 104%
residual activity (TESK1 (human); compound 10.0 µM): 98%
residual activity (STK33 (human); compound 1.0 µM): 39%
residual activity (STK33 (human); compound 10.0 µM): 22%
residual activity (TLK1 (human); compound 1.0 µM): 104%
residual activity (TLK1 (human); compound 10.0 µM): 101%
residual activity (TTBK2 (human); compound 1.0 µM): 95%
residual activity (TTBK2 (human); compound 10.0 µM): 74%
residual activity (CDK9 CCNT1 (human); compound 1.0 µM): 96%
residual activity (CDK9 CCNT1 (human); compound 10.0 µM): 90%
residual activity ([1]; compound 1.0 µM): 99%
residual activity ([1]; compound 10.0 µM): 54%
residual activity (ZAP70 (human); compound 1.0 µM): 102%
residual activity (ZAP70 (human); compound 10.0 µM): 79%
residual activity (EIF2AK3 (human); compound 1.0 µM): 99%
residual activity (EIF2AK3 (human); compound 10.0 µM): 80%
residual activity ([2]; compound 1.0 µM): 71%
residual activity ([2]; compound 10.0 µM): 29%
residual activity (SIK2 (human); compound 1.0 µM): 66%
residual activity (SIK2 (human); compound 10.0 µM): 21%
residual activity (MAPK7 (human); compound 1.0 µM): 65%
residual activity (MAPK7 (human); compound 10.0 µM): 32%
residual activity (WNK1 (human); compound 1.0 µM): 103%
residual activity (WNK1 (human); compound 10.0 µM): 104%
residual activity (TEK (human); compound 1.0 µM): 100%
residual activity (TEK (human); compound 10.0 µM): 85%
residual activity (DDR2 (human); compound 1.0 µM): 97%
residual activity (DDR2 (human); compound 10.0 µM): 98%
residual activity (CSNK1G2 (human); compound 1.0 µM): 91%
residual activity (CSNK1G2 (human); compound 10.0 µM): 90%
residual activity (MAP2K6 (human); compound 1.0 µM): 72%
residual activity (MAP2K6 (human); compound 10.0 µM): 31%
residual activity (MAP4K3 (human); compound 1.0 µM): 69%
residual activity (MAP4K3 (human); compound 10.0 µM): 21%
residual activity (STK24 (human); compound 1.0 µM): 97%
residual activity (STK24 (human); compound 10.0 µM): 81%
residual activity ([3]; compound 1.0 µM): 110%
residual activity ([3]; compound 10.0 µM): 102%
residual activity (ABL1 (human); compound 1.0 µM): 102%
residual activity (ABL1 (human); compound 10.0 µM): 106%
residual activity (PDGFRA (human); compound 1.0 µM): 91%
residual activity (PDGFRA (human); compound 10.0 µM): 61%
residual activity (SIK3 (human); compound 1.0 µM): 110%
residual activity (SIK3 (human); compound 10.0 µM): 88%
residual activity (TTBK1 (human); compound 1.0 µM): 100%
residual activity (TTBK1 (human); compound 10.0 µM): 84%
residual activity (PTK6 (human); compound 1.0 µM): 57%
residual activity (PTK6 (human); compound 10.0 µM): 15%
residual activity (IRAK1 (human); compound 1.0 µM): 100%
residual activity (IRAK1 (human); compound 10.0 µM): 93%
residual activity (ULK2 (human); compound 1.0 µM): 92%
residual activity (ULK2 (human); compound 10.0 µM): 61%
residual activity (NUAK1 (human); compound 1.0 µM): 13%
residual activity (NUAK1 (human); compound 10.0 µM): 2%
residual activity (MAP4K5 (human); compound 1.0 µM): 109%
residual activity (MAP4K5 (human); compound 10.0 µM): 90%
residual activity (TSSK1B (human); compound 1.0 µM): 12%
residual activity (TSSK1B (human); compound 10.0 µM): 3%
residual activity (STK16 (human); compound 1.0 µM): 97%
residual activity (STK16 (human); compound 10.0 µM): 96%
residual activity (PRKCG (human); compound 1.0 µM): 108%
residual activity (PRKCG (human); compound 10.0 µM): 95%
residual activity (ULK1 (human); compound 1.0 µM): 98%
residual activity (ULK1 (human); compound 10.0 µM): 47%

CCCC(CCC)C(=O)O
residual activity (MAP2K6 (human); compound 10.0 µM): 95%
residual activity (MAP2K6 (human); compound 50.0 µM): 81%
residual activity (NEK7 (human)): 99%
residual activity (NUAK1 (human); compound 10.0 µM): 88%
residual activity (NUAK1 (human); compound 50.0 µM): 86%
